Key:
Assay type in all cases: biochemical
EGFR A763_Y764insFHEA = EGFR A763_Y764insFHEA (Homo sapiens, UniProt P00533, INS763FHEA); test: Kinase activity assay (33P-ATP filter-binding) on EGFR exon 20 insertion mutant kinase A763_Y764insFHEA; conditions: for IC50: ATP at Km
EGFR D770-N771insNPG = EGFR D770-N771insNPG (Homo sapiens, UniProt P00533, INS770NPG); test: Kinase activity assay (33P-ATP filter-binding) on EGFR exon 20 insertion mutant kinase D770-N771insNPG; conditions: ATP at Km
Her2 A775-G776insYVMA = Her2 A775-G776insYVMA (Homo sapiens, UniProt P04626, INS775YVMA); test: Kinase activity assay (33P-ATP filter-binding) on Her2 exon 20 insertion mutant kinase A775-G776insYVMA; conditions: for IC50: ATP at Km
Chain of Her2 A775-G776insYVMA (P04626 with tags, fused parts or gaps INS775YVMA limits assumed): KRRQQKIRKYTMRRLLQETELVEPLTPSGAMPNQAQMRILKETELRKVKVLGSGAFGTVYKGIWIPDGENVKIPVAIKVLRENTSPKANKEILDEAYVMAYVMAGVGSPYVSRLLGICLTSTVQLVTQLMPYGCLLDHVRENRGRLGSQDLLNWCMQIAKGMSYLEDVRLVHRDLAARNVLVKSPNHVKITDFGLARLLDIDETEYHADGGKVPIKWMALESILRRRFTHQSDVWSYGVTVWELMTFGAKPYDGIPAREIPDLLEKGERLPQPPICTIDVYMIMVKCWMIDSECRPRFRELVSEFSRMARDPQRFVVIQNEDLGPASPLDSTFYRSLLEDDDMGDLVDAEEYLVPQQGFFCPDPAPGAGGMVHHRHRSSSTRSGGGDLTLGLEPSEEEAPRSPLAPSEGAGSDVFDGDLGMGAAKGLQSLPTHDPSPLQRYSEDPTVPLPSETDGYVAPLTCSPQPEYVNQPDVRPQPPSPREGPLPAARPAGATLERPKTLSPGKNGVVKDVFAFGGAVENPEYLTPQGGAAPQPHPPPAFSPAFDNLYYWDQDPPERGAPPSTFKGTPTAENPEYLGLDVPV

IC50 (EGFR A763_Y764insFHEA) [nM]	IC50 (EGFR A763_Y764insFHEA; class symbols) [nM]	IC50 (EGFR D770-N771insNPG) [nM]	IC50 (EGFR D770-N771insNPG; class symbols) [nM]	activity relative to that of poziotinib (EGFR A763_Y764insFHEA; EGFR exon 20 insertion mutant kinase, mutant not specified)	IC50 (Her2 A775-G776insYVMA) [nM]	IC50 (Her2 A775-G776insYVMA; class symbols) [nM]	inhibitory activity on Her2 insertion mutant kinase relative to that of poziotinib (Her2 A775-G776insYVMA)	Structure (SMILES)
6.68	4 to 40	1.61	< 4	–	–	–	–	C=CC(=O)N1CC2CN(c3cc4c(Nc5ccc(Cl)c(Cl)c5F)ncnc4cc3OC)CC2C1 (stereo not drawn) [Example 1]
3.03	< 4	1.65	< 4	–	–	–	–	COc1cc2ncnc(Nc3ccc(Cl)c(Cl)c3F)c2cc1N1CCCC1 [Example 2]
1.32	< 4	0.513	< 4	2-3 times	2.61	< 4	–	C=CC(=O)N1CC(C(F)(F)c2cc3c(Nc4ccc(Cl)c(Cl)c4F)ncnc3cc2OC)C1 [Example 3]
11.8	4 to 40	3.04	< 4	–	–	–	–	C=CC(=O)N1CC(C(=O)c2cc3c(Nc4ccc(Cl)c(Cl)c4F)ncnc3cc2OC)C1 [Example 4]
2.19	< 4	1.54	< 4	–	1.02	< 4	about 4 times	C=CC(=O)N1CCC(C(F)(F)c2cc3c(Nc4ccc(Cl)c(Cl)c4F)ncnc3cc2OC)CC1 [Example 5]
16.2	4 to 40	4.51	4 to 40	–	–	–	–	C=CC(=O)N1CCC(C(=O)c2cc3c(Nc4ccc(Cl)c(Cl)c4F)ncnc3cc2OC)CC1 [Example 6]
4.04	4 to 40	0.833	< 4	–	1.84	< 4	–	C=CC(=O)N1CC2CC(Oc3cc4c(Nc5ccc(Cl)c(Cl)c5F)ncnc4cc3OC)CC2C1 (stereo not drawn) [Example 7]
–	4 to 40	–	4 to 40	–	–	–	–	C=CC(=O)N1C2CC(Sc3cc4c(Nc5ccc(Cl)c(Cl)c5F)ncnc4cc3OC)CC1C2 (stereo not drawn) [Example 8]
–	4 to 40	–	4 to 40	–	–	4 to 40	–	C=CC(=O)N1CC2CC1CC2C(=O)c1cc2c(Nc3ccc(Cl)c(Cl)c3F)ncnc2cc1OC (stereo not drawn) [Example 9]
–	< 4	–	< 4	–	–	–	–	C=CC(=O)N1CC2C(C1)C2Oc1cc2c(Nc3ccc(Cl)c(Cl)c3F)ncnc2cc1OC (stereo not drawn) [Example 10]
–	4 to 40	–	4 to 40	–	–	4 to 40	–	C=CC(=O)N1C2CCC1CC(C(=O)c1cc3c(Nc4ccc(Cl)c(Cl)c4F)ncnc3cc1OC)C2 (stereo not drawn) [Example 11]
–	4 to 40	–	< 4	–	–	< 4	–	C=CC(=O)N1CC2(CC(Oc3cc4c(Nc5ccc(Cl)c(Cl)c5F)ncnc4cc3OC)C2)C1 [Example 13]
–	< 4	–	< 4	–	–	< 4	–	C=CC(=O)N1C[C@H]2C[C@H](Oc3cc4c(Nc5ccc(Cl)c(Cl)c5F)ncnc4cc3OCCOC)C[C@H]2C1 [Example 16]
–	4 to 40	–	< 4	–	–	< 4	–	C=CC(=O)N1C[C@H]2C[C@H](Oc3cc4c(Nc5ccc(Cl)c(Cl)c5F)ncnc4cc3OCCCN3CCOCC3)C[C@H]2C1 [Example 17]
–	–	–	–	–	4.79	4 to 40	–	C=CC(=O)N1CCC(Oc2cc3c(Nc4ccc(Cl)c(Cl)c4F)ncnc3cc2OC)CC1 [Poziotinib, reference compound]
